The results in this text go back to patent US20210123061A1, “METHODS AND COMPOSITIONS FOR TREATING INFLAMMATORY DISEASE OR DISORDER” (THE BRIGHAM AND WOMEN'S HOSPITAL, INC., priority 2018, published 2021).

Assay [1] concerns STAT1 phosphorylation (Ser727, Tyr701). Description: Immunoblot of STAT1 phosphorylation in IFN-γ-stimulated PBMC-derived macrophages. To be noted: pre-treatment two hours, 60 minutes of IFN-γ stimulation, vs DMSO. The format is cell-based, human. How it is done: FIGS. 3A-3F show RSK1 is activated through JAK signaling and its inhibition suppresses STAT1 phosphorylation at Ser727 in human primary macrophages in response to IFN-γ. (FIG. 3A) PBMC-derived macrophages were pre-treated with DMSO or 10 μM a pan-JAK inhibitor, pyridone-6, for two hours and then stimulated with IFN-γ for indicated time under serum starvation. Cell lysates were subjected to immunoprecipitation with normal IgG or anti-RSK1 followed by immunoblot analysis using the indicated antibodies. WCL, whole cell lysate. N=3 donors. (FIG. 3B) Immunoblots of cell lysates from macrophages that were transfected with control siRNA or RSK1 siRNA followed by stimulation with IFN-γ for indicated time under serum starvation. N=2 donors. (FIG. 3C) Immunoblots of cell lysates from macrophages that were pre-treated with DMSO or BI-D1870 for two hours and subsequently left unstimulated or stimulated with IFN-γ for 1 hour under serum starvation. (FIG. 3D) Densitometric based quantification (ImageJ Software) of STAT1-pSer727 in panel (FIG. 3C) plus three additional donors. The phosphorylation levels in cells pretreated with DMSO and stimulated were defined as 1.0. Data are means±SE. N=6 donors. **P<0.01 indicate significance for phosphorylation levels compared to control (treatment with DMSO and IFN-γ) by Dunnett's comparison test. (FIG. 3E) Macrophages were treated with DMSO or BI-d1870 for two hours followed by IFN-γ stimulation under serum starvation. Cell lysates were subjected to immunoprecipitation with normal IgG or anti-STAT1-pSer727 followed by SYPRO ruby stain or immunoblot analysis with the indicated antibodies. Immunoprecipitants in the gel (red square) were in-gel digested for parallel reaction monitoring (PRM) mass spectrometry. (FIG. 3F) Quantification of PRM ions (MS/MS ions) of the indicated STAT1 peptide harboring a phosphorylation at Ser727 (and oxidized methionine, m), generated from the digest of panel […].
Cell culture of human PBMC-derived primary macrophages. […]
(Immunoblotting shows a protein as a band on a membrane.)

Assay [2] deals with activated macrophages (CD45+ CD11b+ F4/80+ CD86+ cells). In words: Mouse model of thioglycollate-elicited peritonitis, flow cytometry of peritoneal cells. It counts as in vivo, mice. To be noted: 30 mg/kg intraperitoneally, twice; 24 hours after thioglycollate. How it is done: FIGS. 5A-5D show RSK activity plays a key role for pro-inflammatory activation of macrophages in peritonitis model. (FIG. 5A) Model overview—mice were injected intraperitoneally with vehicle or 30 mg/kg BI-D1870. Twenty-four hours after the injection, 4% thioglycollate as well as vehicle or 30 mg/kg BI-D1870 were injected intraperitoneally in the mice. Forty-eight hours after the first injection, peritoneal cells were harvested. (FIG. 5B) Representative results of flow cytometry. Peritoneal cells were incubated with APC-Cy7-anti-CD45, FITC-anti-F4/80, APC-anti-CD11b, and PE-Cy7-anti-CD86 followed by flow-cytometry analysis. (FIG. 5C) Ratio of CD86-positive cells in peritoneal macrophages. Data are means±SE. N=10 mice. *P<0.05 indicates significance compared to control (vehicle) by unpaired Student's test. (FIG. 5D) Cell numbers of peritoneal CD86-positive macrophages. Data are means±SE. N=10 mice. *P<0.05 indicates significance by unpaired Student's test.
Mouse peritonitis model. C57BL/6J wild type mice (12 weeks old, male) were purchased from Jackson Laboratory. We injected intraperitoneally with vehicle (30% PEG400, 0.5% Tween80, 5% Propylene glycol) or 30 mg/kg BI-D1870 (Selleck Chemicals). […]
Flow cytometry. […] After washing cells with EasySep Buffer, stained cells were analyzed by BD FACSAria II (BD Bioscience) and FlowJo software (FlowJo LLC).

Regarding `CC(C)CCN1c2nc(Nc3cc(F)c(O)c(F)c3)ncc2N(C)C(=O)C1C` (stereo not shown) [BI-D1870], in assay [1], the phospho-STAT1-Ser727 signal entry is “attenuated signal” and the phospho-STAT-Tyr701 signal result is reported as “no change”. In assay [2], the “accumulation of activated macrophages in peritoneal cavity” value is listed as “suppressed” and the “ratio of activated macrophages to total macrophages” value is given as “suppressed”.
